Test results from PubChem BioAssay (NCI).
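Each compound was tested at five concentrations against cells in 96-well plates for 48 hours. Here, GI50 denotes the concentration required for 50% inhibition of growth. At the TGI there is no net growth.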

Columns and labels:
Assay in all cases: NCI-60 cell line screen, 48 h
[1] = test system: UO-31 renal
[2] = test system: SF-295 CNS
[3] = test system: SW-620 colon
[4] = test system: ACHN renal
[5] = test system: MCF7 breast
[6] = test system: SN12C renal
[7] = test system: NCI-H522 lung
[8] = test system: HOP-62 NSCLC
[9] = test system: LOX IMVI melanoma
[10] = test system: OVCAR-5 ovarian
[11] = test system: NCI-H23 lung
[12] = test system: OVCAR-8 ovarian
[13] = test system: NCI/ADR-RES ovarian
[14] = test system: HCC-2998 colon
[15] = test system: SNB-75 CNS
[16] = test system: SF-268 CNS
[17] = test system: K-562 leukemia
[18] = test system: CCRF-CEM leukemia
[19] = test system: MOLT-4 leukemia
[20] = test system: KM12 colon
[21] = test system: SK-OV-3 ovarian
[22] = test system: M14 melanoma
[23] = test system: PC-3 prostate
[24] = test system: SNB-19 CNS
[25] = test system: UACC-257 melanoma
[26] = test system: MDA-MB-231 breast
[27] = test system: HL-60(TB) leukemia
[28] = test system: MALME-3M melanoma
[29] = test system: 786-0 renal
[30] = test system: RXF 393 renal
[31] = test system: EKVX NSCLC
[32] = test system: OVCAR-3 ovarian
[33] = test system: NCI-H226 lung
[34] = test system: RPMI-8226 leukemia
[35] = test system: U251 CNS
[36] = test system: IGROV1 ovarian
[37] = test system: A549 NSCLC
[38] = test system: T-47D breast
[39] = test system: SK-MEL-28 melanoma
[40] = test system: UACC-62 melanoma
[41] = test system: HT29 colon
[42] = test system: DU-145 prostate
[43] = test system: A498 renal
[44] = test system: BT-549 breast
[45] = test system: HS 578T breast
[46] = test system: SK-MEL-5 melanoma
[47] = test system: HOP-92 NSCLC
[48] = test system: NCI-H460 lung
[49] = test system: TK-10 renal
[50] = test system: OVCAR-4 ovarian
[51] = test system: COLO 205 colon
[52] = test system: HCT-116 colon
[53] = test system: HCT-15 colon
[54] = test system: SF-539 CNS
[55] = test system: MDA-MB-435

`COc1cc2c(cc1OCCCCCCNC(=O)c1cc3ccccc3[nH]1)N=CC1CCCN1C2=O` (stereo not given) was tested, and the GI50 [1] was 33.9 µM, the TGI [1] was > 100 µM and the GI50 [2] was 31.1 µM. The TGI [2] was > 100 µM, the GI50 [3] was 38.6 µM and the TGI [3] was > 100 µM. For the same compound, the GI50 [4] was 35.2 µM, the TGI [4] was > 100 µM and the GI50 [5] was 27.3 µM. For the same compound, the TGI [5] was > 100 µM, the GI50 [6] was 65 µM and the TGI [6] was > 100 µM. It also gave a GI50 [7] of 18.7 µM, a TGI [7] of 88.1 µM and a GI50 [8] of 50.2 µM. For the same compound, the TGI [8] was > 100 µM, the GI50 [9] was 31.8 µM and the TGI [9] was > 100 µM. The GI50 [10] was > 100 µM, the TGI [10] was > 100 µM and the GI50 [11] was 51 µM. The TGI [11] was > 100 µM, the GI50 [12] was 30.5 µM and the TGI [12] was > 100 µM. For the same compound, the GI50 [13] was 31.7 µM, the TGI [13] was > 100 µM and the GI50 [14] was 35.8 µM. The TGI [14] was > 100 µM, the GI50 [15] was 64.2 µM and the TGI [15] was > 100 µM. It also gave a GI50 [16] of 6.8 µM, a TGI [16] of 26 µM and a GI50 [17] of 30.5 µM. The TGI [17] was > 100 µM, the GI50 [18] was 27.3 µM and the TGI [18] was > 100 µM. The GI50 [19] was 31.6 µM, the TGI [19] was > 100 µM and the GI50 [20] was 34.8 µM. The TGI [20] was > 100 µM, the GI50 [21] was 64.8 µM and the TGI [21] was > 100 µM. For the same compound, the GI50 [22] was 65.5 µM, the TGI [22] was > 100 µM and the GI50 [23] was 36 µM. The TGI [23] was > 100 µM, the GI50 [24] was 63.1 µM and the TGI [24] was > 100 µM. It also gave a GI50 [25] of 14.4 µM, a TGI [25] of 51.2 µM and a GI50 [26] of 20.9 µM. For the same compound, the TGI [26] was 79.1 µM, the GI50 [27] was 41.2 µM and the TGI [27] was > 100 µM. The GI50 [28] was 20.5 µM, the TGI [28] was > 100 µM and the GI50 [29] was > 100 µM. The TGI [29] was > 100 µM, the GI50 [30] was 35.3 µM and the TGI [30] was 54.6 µM. It also gave a GI50 [31] of 14.4 µM, a TGI [31] of 65.4 µM and a GI50 [32] of 6.17 µM. For the same compound, the TGI [32] was > 100 µM, the GI50 [33] was 58 µM and the TGI [33] was > 100 µM. It also gave a GI50 [34] of 18.7 µM, a TGI [34] of 77.6 µM and a GI50 [35] of 40 µM. The TGI [35] was > 100 µM, the GI50 [36] was 17.4 µM and the TGI [36] was > 100 µM. For the same compound, the GI50 [37] was 39 µM, the TGI [37] was > 100 µM and the GI50 [38] was 15.4 µM. The TGI [38] was > 100 µM, the GI50 [39] was > 100 µM and the TGI [39] was > 100 µM. For the same compound, the GI50 [40] was 39.5 µM, the TGI [40] was > 100 µM and the GI50 [41] was 41.8 µM. For the same compound, the TGI [41] was > 100 µM, the GI50 [42] was 21.6 µM and the TGI [42] was 72.1 µM. For the same compound, the GI50 [43] was 26.3 µM, the TGI [43] was 64.2 µM and the GI50 [44] was 21.7 µM. The TGI [44] was 74.2 µM, the GI50 [45] was 30.6 µM and the TGI [45] was > 100 µM. It also gave a GI50 [46] of 14.2 µM, a TGI [46] of 32 µM and a GI50 [47] of 25.3 µM. The TGI [47] was > 100 µM, the GI50 [48] was 16.8 µM and the TGI [48] was 62.7 µM. For the same compound, the GI50 [49] was 20.7 µM, the TGI [49] was 93.6 µM and the GI50 [50] was 89.4 µM. The TGI [50] was > 100 µM, the GI50 [51] was 45.4 µM and the TGI [51] was > 100 µM. The GI50 [52] was 45.6 µM, the TGI [52] was > 100 µM and the GI50 [53] was 32.1 µM. For the same compound, the TGI [53] was > 100 µM, the GI50 [54] was 17 µM and the TGI [54] was 33.4 µM. The GI50 [55] was 39.3 µM and the TGI [55] was > 100 µM.
